# Experimental data published in publication PMC11284790, “Targeting Myeloperoxidase Ameliorates Gouty Arthritis: A Virtual Screening Success Story” (Journal of Medicinal Chemistry, 2024).
# Where two headings read alike, the source gives them in different places.
# What was measured:
# MSU-induced paw edema [1] = assay: MSU-induced paw edema, intraperitoneal treatment; type: in vivo; settings: for reduction of paw edema (time-dependent AUC) vs VEH + MSU: 30 mg/kg i.p.; for effect on paw edema over time: i.p. 30 min before MSU, mefenamic acid 30 mg/kg, RL6 3, 10, 30, RL7 0.3, 3, 30, ZINC9089086 3, 10, 30 mg/kg, 6 h
# Description: MSU-induced edema was performed as previously described.[22] The compounds were prepared by dilution in a solution containing 0.5% Tween 80 and 5% DMSO and then resuspended in PBS prior to administration. The animals were treated intraperitoneally (i.p.) with the following substances: vehicle (VEH: 5% DMSO; 0.5% Tween 80 in PBS), mefenamic acid (a nonsteroidal anti-inflammatory drug at a dosage of 30 mg/kg), RL6 (at doses of 3, 10, and 30 mg/kg), RL7 (at doses of 0.3, 3, and 30 mg/kg), or ZINC9089086 (at doses of 3, 10, and 30 mg/kg).[31] After 30 min, the mice were anesthetized using inhaled isoflurane (2% v/v in O2). A hypodermic syringe with a 31-gauge needle (BD, Franklin Lakes, NJ, USA) was used to administer the vehicle (VEH: PBS, 30 μL) or MSU (1.5 mg/30 μL) via the intraplantar route (i.pl.), into the right hind paw (Figure 9).
# (§1) Paw volume (mL) was measured at various time points, including before injection (baseline, B), […] 1, 2, 3, 4, 5, and 6 h following MSU injection using a plethysmometer (Ugo Basile, Comerio, Italy) (Figure 7). For this, the injected hind paw was immersed into the dipping solution (6 mM NaCl diluted in distilled water and added with 2 mL/L of a wetting compound provided by the manufacturer) until the ankle. The extent of edema was quantified as a change in paw volume (Δ mL) by subtracting the basal paw volume from the volume of the paw measured at each time point. To evaluate the antiedematogenic effect of orally administered MPO inhibitors (p.o.), the animals were fasted for 1 h and then treated with equimolar doses of the following substances: vehicle (VEH: 5% DMSO; 0.5% tween 80 in PBS), mefenamic acid (30 mg/kg), RL 6 (33 mg/kg), RL 7 (54 mg/kg), RL 21 (30 mg/kg), or ZINC9089086 (34 mg/kg). After 1 h, the anesthetized mice (2% isoflurane, v/v in O2) received either the vehicle (PBS, 30 μL, i.pl.) or 1.5 mg/30 μL MSU (i.pl.). The paw volume was evaluated at the same time points as previously described. The percentage of edema inhibition by the compounds was calculated discounting the paw volume of mice that received oral or intraperitoneal vehicle and PBS intraplantar (VEH + VEH).
# MSU-induced paw edema [2] = assay: MSU-induced paw edema, oral treatment; type: in vivo, male C57BL/6 mice
# Description: as §1
# [3] = test system: total peroxidase activity; assay: Paw tissue total peroxidase activity after MSU; type: in vivo, male C57BL/6 mice; settings: intraperitoneal pretreatment (RL6 30 mg/kg), tissue collected at 6 h
# Description: After the assessment of paw edema was completed, the mice were immediately anesthetized by inhalation of 2% isoflurane mixture in oxygen (O2). Subsequently, the surface of the hind paws was collected for the measurement of total peroxidase activity, IL-6, and IL-1β. These tissue samples were then frozen using dry ice and stored at −80 °C until further analysis. The frozen tissues were later pulverized into a fine powder using liquid nitrogen and homogenized in a phosphate buffer (100 mM, pH 7.4). For the analysis of total peroxidase activity, a portion of this homogenate was mixed with hexadecyltrimethylammonium (1% HTAB, pH 6.0), vigorously vortexed, and sonicated. The resulting mixture was then centrifuged at 10,000g for 10 min, at 4 °C, and heated at 60 °C for 2 h. The sample of each supernatant was incubated with a solution containing 50 mM phosphate buffer, 0.164 mg/mL of o-dianisidine dihydrochloride, and H2O2 (0.0005%, pH 6.0). […] Each unit represents the capacity to degrade 1 μmol of H2O2 per minute.[81]
# IL-1β = assay: Paw tissue IL-1β level after MSU (ELISA); type: in vivo, male C57BL/6 mice; settings: intraperitoneal pretreatment (RL6 30 mg/kg), tissue collected at 6 h
# Description: (§2) The remaining part of the homogenate was treated with a solution of protease/phosphatase inhibitors (1 mM phenylmethylsulfonyl fluoride, 10 μg/mL leupeptin, and 10 μg/mL trypsin inhibitor) and centrifuged at 10,000g (10 min at 4 °C). The obtained supernatants were subjected to 1:2 dilution in PBS and subsequently used for the assessment of IL-1β and IL-6 using murine enzyme-linked immunosorbent assay kits, specifically a sandwich ELISA technique, following manufacturer’s instructions (BioLegend, CA, USA). The protein content within the samples was determined by using the Bradford method (1976). The results were quantified and expressed in pg/mg of protein (Bio-Rad, Hercules, CA, USA).[76]
# IL-6 = assay: Paw tissue IL-6 level after MSU (ELISA); type: in vivo, male C57BL/6 mice; settings: intraperitoneal pretreatment (RL6 30 mg/kg), tissue collected at 6 h
# Description: as §2
# dHL-60 cells = assay: Cellular production of HOCl, PMA-activated dHL-60 cells; type: cell-based, human; settings: 20 μM compound, 100 nM PMA, 1 h
# Description: Human promyelocytic leukemic cells (HL-60) (BCRJ, RJ, Brazil) were cultivated in RPMI with fetal bovine serum (10%), penicillin (62 μg/mL), and streptomycin (100 μg/mL) at 37 °C in 5% CO2 atmosphere. HL-60 cells were differentiated to neutrophil-like (dHL-60) by DMSO (1.25%) during 4 days.[25]
# (§3) Measurement of HOCl production by 1 × 10^6 dHL-60 or neutrophils was carried out in PBS (10 mM Na2HPO4, 2 mM KH2PO4, 0.5 mM MgCl2, 1 mM CaCl2, 140 mM NaCl, 5.5 mM dextrose, 100 μM diethylenetriaminepentaacetic acid, 5 mM taurine) in the presence of the compounds (20 μM in 0.3% DMSO) or 0.3% DMSO (control). Cells were activated with phorbol myristate acetate (100 nM) at 37 °C for 1 h. After incubation, cells were centrifuged at 1400 rpm for 10 min, and the supernatant was diluted threefold. Finally, 240 μL of this supernatant was added to 60 μL acetate buffer (400 mM, pH 5.4) containing NaI (100 μM) and TMB (2 mM in DMFO 10%). Taurine chloramine was quantified by TMB oxidation at 655 nm.[33] Inhibition of HOCl production was calculated as the percentage of the control (vehicle).
# [4] = test system: human peripheral blood neutrophils; assay: Cellular production of HOCl, PMA-activated peripheral blood neutrophils; type: cell-based; settings: 20 μM compound, 100 nM PMA, 1 h
# Description: Human neutrophils were obtained from healthy individuals as previously described.[24] The experiments were approved by the local ethics committee (CEPSH-ICB 1435/18).
# as §3
# human neutrophils = assay: MSU-induced NETosis assay (sytox green fluorescence microscopy); type: cell-based; settings: 20 μM compound, MSU 250 μg/mL, 90 min
# Description: NETosis assay was conducted on human neutrophils adhered to lysine-coated glass coverslips as previously reported.[80] After neutrophils’ adhesion, the compounds were diluted in RPMI medium (free of phenol red and fetal bovine serum) at a final concentration of 20 μM (0.15% DMSO) and added to the cells for 15 min at 37 °C in a 5% CO2 atmosphere. Then, MSU crystals (250 μg/mL), known to induce NETosis, were added. After 90 min incubation, the medium was carefully removed, paraformaldehyde was added (500 μL at 4%), and incubated at 4 °C overnight. In the following day, paraformaldehyde was removed, and cells were washed threefold with tris-HCl buffer (20 mM, pH 7.4) and kept into the same buffer at 4 °C. Tris-HCl buffer was carefully removed, and DNA was stained by adding 500 μL SYTOX Green (500 nM diluted in tris-HCl buffer). The system was kept for 30 min at room temperature, protected from light. After staining, the coverslips were mounted over the glass slides using ProLong Diamond Antifade Mountant fixation medium. Fluorescence images were acquired in an Axiovert 200 (Zeiss) fluorescence microscope with a 20x/0.4 objective and Zeiss Filter Set 09, λex = 450–490 nm, λem = above 515 nm. Images were taken by an Axiocam HR R3 camera device.
# Human leukocyte MPO [5] = target: T1, Human leukocyte MPO (Homo sapiens, UniProt P05164); settings: read-out: previously reported IC50 for MPO; cited from earlier work
# T1 sequence (P05164 279-745 limits assumed): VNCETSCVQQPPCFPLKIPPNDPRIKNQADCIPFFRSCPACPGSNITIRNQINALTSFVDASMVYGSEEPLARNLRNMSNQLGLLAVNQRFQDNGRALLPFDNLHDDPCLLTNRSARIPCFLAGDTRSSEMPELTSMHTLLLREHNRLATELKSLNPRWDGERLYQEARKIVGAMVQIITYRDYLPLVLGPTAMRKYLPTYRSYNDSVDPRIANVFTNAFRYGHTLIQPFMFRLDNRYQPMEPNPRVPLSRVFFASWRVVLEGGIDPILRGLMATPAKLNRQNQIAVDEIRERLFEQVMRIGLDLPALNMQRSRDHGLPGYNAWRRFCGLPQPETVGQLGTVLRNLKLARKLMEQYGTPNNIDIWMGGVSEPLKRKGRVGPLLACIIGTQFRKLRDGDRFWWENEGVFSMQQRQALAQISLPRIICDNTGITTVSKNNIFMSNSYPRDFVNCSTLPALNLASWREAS
# T1 sequence (P05164 165-278 limits assumed): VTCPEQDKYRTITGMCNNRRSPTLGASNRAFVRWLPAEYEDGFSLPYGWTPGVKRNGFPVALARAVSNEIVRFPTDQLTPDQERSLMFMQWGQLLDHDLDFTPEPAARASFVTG
# Human leukocyte MPO [6] = target: T1, Human leukocyte MPO; assay: MPO chlorinating activity assay (taurine chloramine/TMB); type: biochemical; parameters: Human leukocyte MPO (EC 1.7.1.11) was purchased from Planta Natural Products; purchased Planta Natural Products (Vienna, Austria); host or cells: human leukocytes
# Description: Chlorinating activity was carried out in phosphate buffer (20 mM, pH 7.4). Compounds (20 μM) were dissolved in 0.03% DMSO, MPO (10 nM), diethylenetriaminepentaacetic acid (100 μM), cetyltrimethylammonium chloride (0.03%), NaCl (140 mM), and taurine (5 mM).[31] This mixture was incubated at 37 °C for 15 min before adding 40 μM hydrogen peroxide. The reaction ran for 8 min and was then stopped by catalase (20 μg/mL). Oxidation of TMB (2 mM) (3,3,5,5-tetramethylbenzidine) by taurine chloroamine catalyzed by iodide (100 μM) was quantified at 650 nm.[33] Results were expressed as a percentage of the control (vehicle). IC50 was calculated by nonlinear regression using the Hill equation present in GraphPad Prism 5 software.
# Human leukocyte MPO [7] = target: T1, Human leukocyte MPO; assay: MPO peroxidatic activity assay (AmplexRed oxidation); type: biochemical; parameters: Human leukocyte MPO (EC 1.7.1.11) was purchased from Planta Natural Products; purchased Planta Natural Products (Vienna, Austria); host or cells: human leukocytes
# Description: MPO peroxidase activity was kinetically monitored using the artificial peroxidase substrate AmplexRed, which is oxidized to resorufin and can be detected by fluorescence.[34] Reactions were carried out in phosphate buffer (50 mM, pH 7.4), MPO (100 pM), cetyltrimethylammonium chloride (0.03%), diethylenetriaminepentaacetic acid (100 μM), AmplexRed (30 μM), and compounds (20 μM in 0.3% DMSO). The reaction was started by adding 2 μM hydrogen peroxide. The reaction product was assessed by fluorescence at λex = 530 and λem = 580 nm. The initial velocity was calculated by the slope of the linear regression in the first minutes of reaction. Inhibition is represented as a percentage of the control (vehicle).
smiles,measurement,setting,value
CCc1c(O)[nH]c2nc3ccccc3n2c1=O [ZINC9089086],reduction of paw edema (time-dependent AUC) vs VEH + MSU,MSU-induced paw edema [1],93.4%
same,effect on paw edema over time,MSU-induced paw edema [1],inhibited paw edema at all of the tested doses
same,inhibition of edema vs VEH + MSU,MSU-induced paw edema [2]; 34 mg/kg po,no significant inhibition
same,reduction in total peroxidase activity in hind paw tissue,[3],unable to decrease
same,decrease in IL-1β levels in hind paw tissue,IL-1β,unable to decrease
same,effect on IL-6 levels in hind paw tissue,IL-6,unable to decrease
"Cc1cccc(Nc2ccccc2C(=O)O)c1C [mefenamic acid, reference compound]",reduction of paw edema (time-dependent AUC) vs VEH + MSU,MSU-induced paw edema [1],91.1%
same,effect on paw edema over time,MSU-induced paw edema [1],prevented paw edema for up to 4 h
same,inhibition of edema vs VEH + MSU,"MSU-induced paw edema [2]; 30 mg/kg, positive control of the oral experiment (Figure 8 legend: i.p.)",77.3%
same,reduction in total peroxidase activity in hind paw tissue,[3],unable to decrease
same,decrease in IL-1β levels in hind paw tissue,IL-1β,unable to decrease
same,effect on IL-6 levels in hind paw tissue,IL-6,unable to decrease
"CCCc1cc(=O)[nH]c(=S)[nH]1 [PTU, propylthiouracil, reference compound]",inhibition of HOCl production in dHL-60 cells,dHL-60 cells,most effective
same,inhibition of HOCl production in peripheral blood neutrophils,[4],most effective
same,inhibition of MSU-induced NETosis,human neutrophils,strongly inhibited
same,IC50,Human leukocyte MPO [5],3.38 µM
same,IC50,"Human leukocyte MPO [6]; 10 nM MPO, 140 mM NaCl, pH 7.4",5.25 µM
same,inhibition at 20 µM,"Human leukocyte MPO [6]; 20 μM compound, 10 nM MPO, 140 mM NaCl, 5 mM taurine, 40 μM H2O2, pH 7.4, read-out: % Inhibition (at 20 μM) Chlorinating",92.3 ± 11.6%
same,inhibition at 20 µM,"Human leukocyte MPO [6]; supplementary csv copy of Table 1, read-out: % Inhibition (Chlorinating)",92.3 ± 11.6%
same,inhibition at 20 µM,"Human leukocyte MPO [7]; 20 μM compound, 100 pM MPO, 30 μM AmplexRed, 2 μM H2O2, pH 7.4, read-out: % Inhibition (at 20 μM) Peroxidatic",94.1 ± 26.4%
same,inhibition at 20 µM,"Human leukocyte MPO [7]; supplementary csv copy of Table 1, read-out: % Inhibition (Peroxidatic)",94.1 ± 26.4%
